{"source": "ChEMBL document CHEMBL1201862", "about": "“PubChem BioAssay data set” (2004)", "key": {"Nonstructural protein 1": {"target": "Nonstructural protein 1 (Influenza A virus, UniProt Q194T2)", "sequence (Q194T2 whole entry)": "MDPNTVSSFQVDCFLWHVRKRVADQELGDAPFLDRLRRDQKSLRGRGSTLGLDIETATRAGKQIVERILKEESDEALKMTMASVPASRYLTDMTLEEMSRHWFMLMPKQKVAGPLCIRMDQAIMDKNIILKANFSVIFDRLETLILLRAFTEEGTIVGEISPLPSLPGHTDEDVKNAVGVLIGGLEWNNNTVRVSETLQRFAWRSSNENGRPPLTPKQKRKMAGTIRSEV", "format": "functional, Influenza A virus (A/California/07/2009(H1N1))"}, "HEK293": {"test_system": "HEK293", "assay": "EBV LMP1 TES2 canonical NF-kB signalling blockers – cell-based, HEK293, luciferase, cherry-pick, dose response (AID 588343)", "format": "functional", "conditions": "Homo sapiens"}, "[1]": {"target": "Latent membrane protein 1 (Human herpesvirus 4 (strain B95-8), UniProt P03230)", "sequence (P03230 whole entry)": "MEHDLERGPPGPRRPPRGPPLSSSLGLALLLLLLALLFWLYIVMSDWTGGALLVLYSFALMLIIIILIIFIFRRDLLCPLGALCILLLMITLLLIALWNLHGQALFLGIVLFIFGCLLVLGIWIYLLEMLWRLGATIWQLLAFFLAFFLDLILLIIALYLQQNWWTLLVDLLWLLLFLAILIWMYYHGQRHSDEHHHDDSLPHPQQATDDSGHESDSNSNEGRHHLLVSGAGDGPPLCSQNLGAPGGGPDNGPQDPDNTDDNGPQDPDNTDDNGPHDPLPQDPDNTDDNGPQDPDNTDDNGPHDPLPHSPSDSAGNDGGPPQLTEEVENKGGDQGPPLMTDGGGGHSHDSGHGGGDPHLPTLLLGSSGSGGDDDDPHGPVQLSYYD", "assay": "LMP1 TES1 pathway selectivity over dsRED control – imaging, HEK293T, dual-color eGFP/dsRED, cherry-picks, selectivity assay for LMP1 NF-kB inhibitor project, dose response (AID 588398)", "format": "functional, cell-based"}, "Caspase-3": {"target": "T1, Caspase-3 (Homo sapiens, UniProt P42574)", "T1 sequence (P42574 whole entry)": "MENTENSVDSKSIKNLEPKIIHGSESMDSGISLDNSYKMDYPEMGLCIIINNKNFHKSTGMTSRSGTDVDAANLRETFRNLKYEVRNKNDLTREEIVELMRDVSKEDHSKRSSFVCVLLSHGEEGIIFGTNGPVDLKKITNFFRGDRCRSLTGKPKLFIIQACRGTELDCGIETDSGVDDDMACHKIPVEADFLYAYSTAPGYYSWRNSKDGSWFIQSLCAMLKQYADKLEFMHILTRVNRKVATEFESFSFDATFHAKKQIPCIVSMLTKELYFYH", "assay": "inhibition of recombinant caspase-3 activity – biochemical, luminescence, set 2, selectivity assay for SENP protease inhibitor project, SAR follow-up (AID 588599)", "format": "functional"}, "[2]": {"target": "T2, Sentrin-specific protease 8 (Homo sapiens, UniProt Q96LD8)", "T2 sequence (Q96LD8 whole entry)": "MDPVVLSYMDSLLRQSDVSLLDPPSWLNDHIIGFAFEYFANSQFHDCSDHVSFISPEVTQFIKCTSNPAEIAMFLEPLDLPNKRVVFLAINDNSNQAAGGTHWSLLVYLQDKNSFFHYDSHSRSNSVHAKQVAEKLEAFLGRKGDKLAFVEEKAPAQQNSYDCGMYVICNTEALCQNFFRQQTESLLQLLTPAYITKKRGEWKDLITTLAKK", "assay": "inhibition of sentrin protease 8 – biochemical, luminescence, set 2, SAR follow-up (AID 588601)", "format": "functional"}, "[3]": {"target": "T3, Sentrin-specific protease 7 (Homo sapiens, UniProt Q9BQF6)", "T3 sequence (Q9BQF6 whole entry)": "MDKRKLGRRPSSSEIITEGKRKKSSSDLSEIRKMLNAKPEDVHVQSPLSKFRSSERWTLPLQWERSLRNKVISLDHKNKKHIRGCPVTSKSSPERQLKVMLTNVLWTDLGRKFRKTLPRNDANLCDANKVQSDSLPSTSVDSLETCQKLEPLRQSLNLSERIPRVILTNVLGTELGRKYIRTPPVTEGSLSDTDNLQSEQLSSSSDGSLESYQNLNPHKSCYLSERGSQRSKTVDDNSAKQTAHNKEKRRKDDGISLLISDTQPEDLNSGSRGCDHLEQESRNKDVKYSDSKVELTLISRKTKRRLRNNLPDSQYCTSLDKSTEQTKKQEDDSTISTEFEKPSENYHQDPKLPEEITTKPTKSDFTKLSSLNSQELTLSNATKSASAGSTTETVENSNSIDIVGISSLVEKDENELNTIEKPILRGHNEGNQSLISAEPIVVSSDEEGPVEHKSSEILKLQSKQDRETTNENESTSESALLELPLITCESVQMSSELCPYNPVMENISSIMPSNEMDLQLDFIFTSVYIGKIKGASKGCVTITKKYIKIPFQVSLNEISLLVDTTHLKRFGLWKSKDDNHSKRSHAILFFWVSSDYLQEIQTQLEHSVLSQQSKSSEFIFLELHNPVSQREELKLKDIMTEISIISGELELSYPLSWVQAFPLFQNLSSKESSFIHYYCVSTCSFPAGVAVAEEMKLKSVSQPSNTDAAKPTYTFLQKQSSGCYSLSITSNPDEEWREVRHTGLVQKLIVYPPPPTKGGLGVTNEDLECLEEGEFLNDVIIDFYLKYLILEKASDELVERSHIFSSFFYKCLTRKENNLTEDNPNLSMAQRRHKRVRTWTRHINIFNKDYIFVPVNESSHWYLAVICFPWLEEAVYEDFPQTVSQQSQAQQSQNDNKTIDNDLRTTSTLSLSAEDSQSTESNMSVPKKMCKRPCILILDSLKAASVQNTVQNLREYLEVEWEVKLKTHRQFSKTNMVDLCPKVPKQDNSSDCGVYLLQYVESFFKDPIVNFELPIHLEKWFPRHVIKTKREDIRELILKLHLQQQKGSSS", "assay": "inhibition of human SENP7 cleavage activity – biochemical, luminescence, set 2, SAR follow-up (AID 588600)", "format": "functional"}, "[4]": {"target": "T4, Sentrin-specific protease 6 (Homo sapiens, UniProt Q9GZR1)", "T4 sequence (Q9GZR1 whole entry)": "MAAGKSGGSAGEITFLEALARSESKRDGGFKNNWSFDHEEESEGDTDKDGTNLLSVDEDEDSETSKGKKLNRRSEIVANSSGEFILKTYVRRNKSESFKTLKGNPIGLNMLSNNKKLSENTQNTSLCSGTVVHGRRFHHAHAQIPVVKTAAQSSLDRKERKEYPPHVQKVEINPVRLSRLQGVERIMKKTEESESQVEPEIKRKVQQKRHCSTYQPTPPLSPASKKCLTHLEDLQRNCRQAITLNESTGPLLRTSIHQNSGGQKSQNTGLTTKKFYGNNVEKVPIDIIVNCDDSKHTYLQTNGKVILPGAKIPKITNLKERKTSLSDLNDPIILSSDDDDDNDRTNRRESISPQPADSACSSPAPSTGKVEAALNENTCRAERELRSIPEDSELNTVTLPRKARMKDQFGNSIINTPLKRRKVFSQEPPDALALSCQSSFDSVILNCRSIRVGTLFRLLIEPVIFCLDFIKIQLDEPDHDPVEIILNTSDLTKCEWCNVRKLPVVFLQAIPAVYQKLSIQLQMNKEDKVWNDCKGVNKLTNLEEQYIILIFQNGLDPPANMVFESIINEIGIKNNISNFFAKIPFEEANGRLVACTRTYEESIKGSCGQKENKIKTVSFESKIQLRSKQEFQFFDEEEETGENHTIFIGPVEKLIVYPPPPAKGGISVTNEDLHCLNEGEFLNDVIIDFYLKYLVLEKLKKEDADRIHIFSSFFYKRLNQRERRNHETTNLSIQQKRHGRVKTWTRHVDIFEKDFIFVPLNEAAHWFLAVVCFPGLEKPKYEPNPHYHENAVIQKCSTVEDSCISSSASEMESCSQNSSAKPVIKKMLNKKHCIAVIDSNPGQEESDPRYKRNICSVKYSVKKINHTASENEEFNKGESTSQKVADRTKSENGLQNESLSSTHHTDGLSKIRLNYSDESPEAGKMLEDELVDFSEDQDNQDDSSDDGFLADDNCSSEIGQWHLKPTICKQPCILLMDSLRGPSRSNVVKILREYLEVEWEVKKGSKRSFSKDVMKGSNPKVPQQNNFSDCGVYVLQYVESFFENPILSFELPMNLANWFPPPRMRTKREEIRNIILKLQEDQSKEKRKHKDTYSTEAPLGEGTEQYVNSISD", "assay": "inhibition of human SENP6 catalytic domain – biochemical, luminescence, set 2, SAR follow-up (AID 588598)", "format": "functional"}, "DNA topoisomerase": {"target": "DNA topoisomerase (Yersinia pestis, UniProt A0A2S9PM60)", "sequence (A0A2S9PM60 whole entry)": "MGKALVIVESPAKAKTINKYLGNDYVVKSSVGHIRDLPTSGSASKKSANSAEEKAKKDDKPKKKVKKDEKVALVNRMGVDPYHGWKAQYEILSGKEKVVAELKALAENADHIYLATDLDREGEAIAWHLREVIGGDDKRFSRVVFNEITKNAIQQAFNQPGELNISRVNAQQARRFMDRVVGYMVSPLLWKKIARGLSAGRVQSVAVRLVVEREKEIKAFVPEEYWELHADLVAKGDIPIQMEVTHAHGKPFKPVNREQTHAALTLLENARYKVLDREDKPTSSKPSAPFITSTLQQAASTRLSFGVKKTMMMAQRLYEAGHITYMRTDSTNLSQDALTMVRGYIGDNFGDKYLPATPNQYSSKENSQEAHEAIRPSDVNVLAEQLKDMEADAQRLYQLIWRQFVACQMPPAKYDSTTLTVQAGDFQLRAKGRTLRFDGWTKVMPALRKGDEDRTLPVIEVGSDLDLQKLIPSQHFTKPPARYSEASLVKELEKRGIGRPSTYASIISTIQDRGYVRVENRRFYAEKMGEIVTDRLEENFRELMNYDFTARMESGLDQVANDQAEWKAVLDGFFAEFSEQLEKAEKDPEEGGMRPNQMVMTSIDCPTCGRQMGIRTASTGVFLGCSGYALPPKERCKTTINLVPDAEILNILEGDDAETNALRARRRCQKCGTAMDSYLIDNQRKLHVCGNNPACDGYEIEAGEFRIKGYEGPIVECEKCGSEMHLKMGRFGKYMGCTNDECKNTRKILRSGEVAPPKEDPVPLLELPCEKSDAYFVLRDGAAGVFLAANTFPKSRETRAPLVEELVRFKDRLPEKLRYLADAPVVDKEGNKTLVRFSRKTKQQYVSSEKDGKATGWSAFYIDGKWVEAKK", "assay": "Yersinia topoisomerase I cleavage product accumulation – biochemical, cherry-pick, dose response (AID 588525)"}, "[5]": {"target": "Sphingosine 1-phosphate receptor 2 (Homo sapiens, UniProt O95136)", "sequence (O95136 whole entry)": "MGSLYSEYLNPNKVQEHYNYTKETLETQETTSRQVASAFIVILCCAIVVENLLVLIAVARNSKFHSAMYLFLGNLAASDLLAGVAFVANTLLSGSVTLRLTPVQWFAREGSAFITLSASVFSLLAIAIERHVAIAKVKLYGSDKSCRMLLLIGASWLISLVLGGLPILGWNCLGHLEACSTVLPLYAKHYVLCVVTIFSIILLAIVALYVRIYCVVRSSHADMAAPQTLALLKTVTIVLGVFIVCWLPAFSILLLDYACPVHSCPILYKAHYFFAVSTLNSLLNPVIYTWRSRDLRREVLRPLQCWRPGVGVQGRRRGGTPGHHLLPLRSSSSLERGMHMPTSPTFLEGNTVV", "assay": "Late-stage fluorescence-based dose-response cell-based counterscreen assay to identify agonists of the Sphingosine 1-Phosphate Receptor 3 (S1P3): Sphingosine 1-Phosphate Receptor 2 (S1P2) agonist assay.", "format": "functional"}, "[6]": {"target": "T5, Sphingosine 1-phosphate receptor 4 (Homo sapiens, UniProt O95977)", "T5 sequence (O95977 whole entry)": "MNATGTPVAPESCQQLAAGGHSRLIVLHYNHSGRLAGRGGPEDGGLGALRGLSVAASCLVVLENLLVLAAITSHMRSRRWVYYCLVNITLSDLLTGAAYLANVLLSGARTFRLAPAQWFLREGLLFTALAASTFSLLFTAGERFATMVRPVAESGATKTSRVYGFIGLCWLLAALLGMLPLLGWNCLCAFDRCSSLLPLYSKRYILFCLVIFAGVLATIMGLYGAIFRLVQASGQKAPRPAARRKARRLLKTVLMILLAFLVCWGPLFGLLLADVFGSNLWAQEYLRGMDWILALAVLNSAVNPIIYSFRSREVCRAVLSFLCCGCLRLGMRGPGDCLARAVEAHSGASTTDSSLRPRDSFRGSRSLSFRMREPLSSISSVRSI", "assay": "Late-stage fluorescence-based dose-response cell-based counterscreen assay to identify agonists of the Sphingosine 1-Phosphate Receptor 3 (S1P3): Sphingosine 1-Phosphate Receptor 4 (S1P4) agonist assay.", "format": "functional"}}, "note": "Active and inactive are the calls of the source."}
{"smiles": "CC(=NNC(=S)Nc1ccc(C)cc1)c1ccccn1", "values": [{"measurement": "IC50", "setting": "Nonstructural protein 1", "value": "16.6 µM (active)"}, {"measurement": "AC50", "setting": "HEK293", "value": "0.149 µM (active)"}, {"measurement": "AC50", "setting": "[1]", "value": "0.793 µM (active)"}]}
{"smiles": "Cc1ccccc1-c1noc(/C(C#N)=C\\c2ccccc2F)n1", "values": [{"measurement": "IC50", "setting": "Caspase-3", "value": "> 99 µM (inactive)"}, {"measurement": "IC50", "setting": "[2]", "value": "> 99 µM (inactive)"}, {"measurement": "IC50", "setting": "[3]", "value": "> 99 µM (inactive)"}, {"measurement": "IC50", "setting": "[4]", "value": "> 99 µM (inactive)"}]}
{"smiles": "Cc1cc(C(=O)Cn2nc(C(=O)O)c3ccccc3c2=O)c(C)n1-c1ccc(OC(F)F)cc1", "values": [{"measurement": "AC50", "setting": "DNA topoisomerase", "value": "4.1 µM (active)"}]}
{"smiles": "O=C(c1ccc(C2CC2)o1)N(C1CCCCC1)C1CCCCC1", "values": [{"measurement": "EC50", "setting": "[5]", "value": "> 50 µM (inactive)"}, {"measurement": "EC50", "setting": "[6]", "value": "> 50 µM (inactive)"}]}
